Measured values published in patent US20170246137A1, “SULFESTROL FOR TREATING CANCER” (CHAMAELEO PHARMA BVBA, priority 2012, published 2017).
“And” between values parts separate entries of the source, which are not always exact repeats. Equal values may be shown once.

Assays:
[1] = test system: platelet-rich plasma (PRP); test: Platelet-aggregation-inducing effects in platelet-rich plasma, absorbance 630 nm; format: cell-based; conditions: 7 minutes, human PRP
Protocol: Blood necessary to generate PRP was obtained from 4 healthy human volunteers. 100 ml of fresh venous blood from each donor was isolated directly into tubes containing 1/10th volume of the anti-coagulant Tri-Sodium Citrate (3.2% w/v). The blood and anti-coagulant were immediately mixed and the final concentration of Tri-Sodium Citrate was 0.0106 M.
PRP was prepared by centrifugation of anti-coagulated blood at 180 g for 10 minutes at room temperature. The cloudy yellow supernatant containing the platelets was removed and placed into a clean polypropylene tube. Platelet-poor plasma (PPP) was prepared by centrifuging the remaining sample at 1,200 g for 20 minutes at room temperature. The PRP was adjusted to a suitable platelet count and absorbance at 630 nm by addition of PPP.
All three compounds were dissolved in 100% DMSO to give a stock concentration of 60 mM. […] […] 100 nM gamma thrombin (Cambridge bioscience) was used as control for platelet aggregation. 90 μl aliquots of PRP were added to 96 wells plates. A baseline absorbance reading was taken at 630 nm. 5 μl of the compounds and gamma thrombin control was added to the appropriate PRP.
The plates were incubated at room temperature for 7 minutes on a plate shaker with continuous shaking. A second A630 nm reading was made after the 7 minutes incubation to measure any platelet aggregation induced by the compounds.

[2] = In vitro metabolism in human liver microsomes (STS and CYP); format: in vitro ADME; parameters: Clint: unit not given here
Protocol: In vitro metabolism pathways of DES, Mono-Sulfestrol and Di-Sulfestrol in human liver microsomes were investigated.
Special emphasis was put on desulfatation by steroid sulfatase (STS) and oxidation by cytochrome P (CYP) metabolism. Liver microsomes (Celsis in vitro Technologies) were used at a concentration of 0.5 mg/ml in a volume of 600 μl phosphate buffer pH 7.4. Estrone-3-sulfate was used as positive control.
5 μM of each compound (test and control compound) was added to the liver microsomes and the mixture was incubated at 37° C. for 5, 10, 20, 30, 50, 90 and 120 minutes. After incubation, aliquots of 45 μl were taken which were subsequently quenched with 150 μl ice cold methanol. Aliquots were incubated ≧1 h at −20° C. for protein precipitation. After precipitation, samples were centrifuged and remaining supernatant was used for analysis with LC-MS/MS. Half life of the compounds, speed of metabolism or intrinsic clearance (Clint), and contribution to metabolism of CYP and STS metabolism were calculated based on the data obtained at each time point.

[3] = Concentration of Mono-Sulfestrol in pooled plasma samples, LC-UV quantification; format: in vivo, male Sprague Dawley rats; conditions: 10 mg/kg of the labelled compound, rat, pooled 0.5-8 hrs
Protocol: The concentration of Mono-Sulfestrol in the pooled samples described in Example 6 was quantified by LC-UV quantification.
A calibration standard solution was prepared as 10,000 ng/mL by adding an appropriate amount of Mono-Sulfestrol into 20% acetonitrile/0.1% formic acid in water. The peak area of the standard solution and the sample were measured with the wavelength set at 200 to 360 nm. The concentration levels of Mono-Sulfestrol were estimated using peak area (Area) of the standard and unknown samples and concentration of the standard (Concstd) by the following equation:
Areaunknown/Areastd=Concunknown/Concstd
Concunknown=Concstd·(Areaunknown/Areastd)

[4] = Estrogenic activity: body weight and plasma cholesterol levels; format: in vivo, male Sprague-Dawley rats; conditions: for Mean bodyweight: in g (unit assumed)
Protocol: Estrogenic activity was determined by measuring body weight and plasma cholesterol levels.
Each animal was dosed three times a day with vehicle or test compound (1st dose 7:30-8:00, 2nd dose 12:30-13:00, 3rd dose 17:00-17:30) for 14 consecutive days.
After 14 days treatment, blood was collected from the animals via cardiac puncture 4 hrs past final dosing to analyze plasma cholesterol levels. The blood was immediately transferred to a tube containing 0.5M EDTA anticoagulant. It was mixed gently and centrifuged at 1000×g at 4° C. for 15 min. Plasma was aspirated from the centrifuged blood samples, quick frozen on dry ice and stored at −80° C. for later use.
Plasma cholesterol levels were determined using a commercial ELISA kit obtained from NovaTeinBio (BG-RAT11262). Standard protocol accompanied by the kit was used without any adjustments.

MDA-MB-231 Dlux = test: Orthotopic spontaneous metastasis breast model, whole body bioluminescence; format: in vivo, female MF-1 nude mice; conditions: for total flux, whole body bioluminescence: mono-Sulfestrol 60 mg/kg, di-Sulfestrol 80 mg/kg orally once a day
Protocol: Female MF-1 nude mice (HsdOla:MF1-Foxn1nu, Harlan, UK) were divided into 3 groups of each 8 mice (n=8):
The mice were 5-6 weeks old at the start of the study and were maintained in sterile isolators within a barriered unit illuminated by fluorescent lights set to give a 12 hour light-dark cycle (on 07.00, off 19.00). The room was air-conditioned to maintain an air temperature range of 23±2° C. Sterile irradiated 2019 rodent diet (Harlan Teklad UK, product code Q219DJ1R2) and autoclaved water were offered ad libitum.
The MDA-MB-231 Dlux cells were maintained in vitro in RPMI containing 2 mM L-Glut and (Life Technologies, UK) and 10% (v/v) heat-inactivated foetal bovine serum (Sigma, Poole, UK) at 37° C. in 5% CO2 and humidified conditions. Cells were treated with Zeocin once a week at 0.4 mg/mL.
On the day of initiation cells were harvested from semi-confluent monolayers with 0.05% Trypsin-EDTA, washed twice in the culture medium and counted. Cells with viability of >90% were re-suspended, for in vivo administration, in 1:1 PBS:Matrigel at 2×10^6 cells/0.1 mL. Prior to injection, the cell suspension was homogenized and 0.1 mL of cell suspension was drawn into a 1 mL syringe. The cell suspension was then injected orthotopically into the lower left-side 2nd mammary fat pad of each mouse under anaesthesia (Medetomidine/Ketamine).
On day 7 after initiation and every six days thereafter, the mice were injected (s.c.) with 150 mg/kg D-Luciferin. 10 minutes following administration of D-Luciferin mice were anaesthetised and 15 minutes after administration they were placed into an imaging chamber (Spectrum CT) and imaged for luminescence (ventral view; whole body and shielding of the primary tumor). Images were captured and processed by Living Image 4.3.1 software (Caliper LS, US.).
On day 7 after initiation mice were assigned to groups such that there was a uniform mean bioluminescent signal between the groups.

[5] = cited from earlier work
[6] = cited from earlier work; remark: listed apart in the source
[7] = Metabolites in plasma after oral and intravenous administration, LC-MS/MS; conditions: 10 mg/kg oral and intravenous
Protocol: Metabolites were identified after oral and intravenous administration of the compounds.
Each group consisted of three rats, giving a total of 12 animals. Compounds were dosed at 10 mg/kg for both oral and intravenous administration. A 0.9% saline solution was used as vehicle for oral and intravenous administration.
Prior to intravenous administration, the solution was filtered through a 0.22 μM filter. Oral dosing was performed using a oral gavage. Tail vein injection was used for intravenous administration.
At 0.5, 1, 2, 4, 6 and 8 hrs post administration, 0.25 ml blood was drawn from the animals and immediately transferred to prechilled microcentrifuge tubes containing 4 μl of K2-EDTA to prevent coagulation. Plasma was obtained by centrifugation of the plasma and stored at −70° C. until analysis. Plasma drawn from each individual rat was pooled according to the following schedule:
The pooled samples were analyzed using LC-MS/MS and the relative percentage of each metabolite in the pooled sample was measured on the basis of the mass spectrometric peak areas of the parent and its metabolites in the plasma.

[8] = orally administered, daily doses of 2 mg; cited from earlier work
[9] = nothing added (STS active, CYP inactive), 5 μM

4,4′-(hex-3-ene-3,4-diyl)bis(4,1-phenylene) disulfate [Di-Sulfestrol]
Absorbance (630 nm) ([1]; 2.3 μM, high absorbance = low aggregation): 0.260 ± 0.030
Absorbance (630 nm) ([1]; 4.7 μM): 0.253 ± 0.024
Absorbance (630 nm) ([1]; 9.4 μM): 0.266 ± 0.039
Absorbance (630 nm) ([1]; 18.75 μM): 0.254 ± 0.025
Absorbance (630 nm) ([1]; 37.5 μM): 0.260 ± 0.027
Absorbance (630 nm) ([1]; 75 μM): 0.264 ± 0.031
Absorbance (630 nm) ([1]; 150 μM): 0.266 ± 0.034
metabolism pathway in human liver microsomes (in words) [2]: only metabolized by STS enzymes
Clint [2, 9]: 31
Contribution to metabolism [2, 9]: 85%
Half-life [2, 9]: 45 min
Mono-Sulfestrol concentration in pooled plasma sample ([3]; intravenous): 735.9 ng/ml and 1.7 μM
Mono-Sulfestrol concentration in pooled plasma sample ([3]; oral): 261.3 ng/ml and 0.6 μM
Mean bodyweight ([4]; Day 0, DES 1.5 mg/kg per day, Di-Sulfestrol 3 mg/kg per day, three doses a day): 387 ± 6.9
Mean bodyweight ([4]; Day 2): 381 ± 8.3
Mean bodyweight ([4]; Day 4): 368 ± 9.5
Mean bodyweight ([4]; Day 6): 357 ± 9.2
Mean bodyweight ([4]; Day 8): 348 ± 8.5
Mean bodyweight ([4]; Day 10): 344 ± 7.2
Mean bodyweight ([4]; Day 12): 341 ± 7.5
Mean bodyweight ([4]; Day 14): 333 ± 6.67
Cholesterol (plasma) ([4]; after 14 days treatment, 4 hrs past final dosing, DES 1.5 mg/kg per day, Di-Sulfestrol 3 mg/kg per day): 12.1 ± 0.799 nmol/L
estrogenic activity in rats (in words) ([4]; lowering body weight and cholesterol levels): show estrogenic activity
total flux, whole body bioluminescence (MDA-MB-231 Dlux; Day 7 (before start of treatment)): 1.73 10^9 photons/second
total flux, whole body bioluminescence (MDA-MB-231 Dlux; Day 13): 8.84 10^9 photons/second
total flux, whole body bioluminescence (MDA-MB-231 Dlux; Day 19): 16.2 10^9 photons/second
effect on tumor progression (in words) (MDA-MB-231 Dlux; oral, MDA-MB-231 Dlux in mice): tumor progression inhibiting effect
tolerance (in words) ([5]; mice, intravenously injectable): well tolerated in mice
estrogenic activity (in words) ([5]; mouse, in vivo): has estrogenic activity
water solubility (in words) [6]: water soluble
metabolic fate in rat plasma (in words) [7]: mostly converted into Mono-Sulfestrol

stilbestrol sulfate
estrogenic activity relative to stilbestrol [8]: 44%
